Measurements from US12606523B2, “Deuterated organic compounds and uses thereof” (ENGRAIL THERAPEUTICS, INC., priority 2022, dated 2026).

What was measured:
[1] = target: T1, human Serotonin 5-HT1A receptor (Homo sapiens, UniProt P08908); conditions: cAMP; % of reference agonist at EC100
T1 sequence (P08908 1-422): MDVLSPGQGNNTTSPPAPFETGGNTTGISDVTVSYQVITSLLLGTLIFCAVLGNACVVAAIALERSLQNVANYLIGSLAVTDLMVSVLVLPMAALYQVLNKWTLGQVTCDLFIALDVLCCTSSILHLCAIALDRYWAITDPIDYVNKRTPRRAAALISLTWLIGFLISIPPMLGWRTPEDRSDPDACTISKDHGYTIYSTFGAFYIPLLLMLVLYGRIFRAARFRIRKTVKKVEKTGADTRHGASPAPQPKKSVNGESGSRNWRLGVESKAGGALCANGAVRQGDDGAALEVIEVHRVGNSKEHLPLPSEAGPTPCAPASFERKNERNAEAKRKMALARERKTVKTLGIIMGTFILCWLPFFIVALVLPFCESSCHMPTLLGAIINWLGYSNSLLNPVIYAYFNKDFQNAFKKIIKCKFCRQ
Experimental: (§1) SPA ^35S-GTPgS experiments are conducted with membrane preparations. IP-One and cAMP HTRF assays are conducted with recombinant cell lines.
(§2) Agonist activity of test compounds is expressed as a percentage of the activity of the reference agonist at its EC100 concentration. Antagonist activity of the test compound is expressed as a percentage of the inhibition of reference agonist activity at its EC80 concentration.

[2] = target: T2, human Serotonin 5-HT2A receptor (Homo sapiens, UniProt P28223); conditions: IP-one; % of reference agonist at EC100
T2 sequence (P28223 whole entry): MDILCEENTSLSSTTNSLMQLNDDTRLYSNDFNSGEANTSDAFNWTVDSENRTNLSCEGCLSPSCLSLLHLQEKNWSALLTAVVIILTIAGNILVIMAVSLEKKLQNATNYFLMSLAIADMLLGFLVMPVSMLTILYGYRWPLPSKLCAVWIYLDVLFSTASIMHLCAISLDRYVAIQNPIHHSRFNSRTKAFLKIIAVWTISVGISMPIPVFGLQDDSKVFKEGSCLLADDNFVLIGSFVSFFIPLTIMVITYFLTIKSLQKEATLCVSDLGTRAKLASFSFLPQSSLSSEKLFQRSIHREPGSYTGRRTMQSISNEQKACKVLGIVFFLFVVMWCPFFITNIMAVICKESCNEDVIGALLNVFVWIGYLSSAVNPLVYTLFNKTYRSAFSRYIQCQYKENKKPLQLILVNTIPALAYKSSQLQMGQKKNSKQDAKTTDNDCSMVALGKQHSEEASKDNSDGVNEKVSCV
Experimental: as §1, §2

Sprague Dawley rats [3] = test: Headshake response; type: in vivo, rat
Experimental: Adult male Sprague Dawley rats are used. […] DOI (3 mg/kg) is dissolved in saline and administered IP at a dose volume of 1 ml/kg (10 minutes prior to test).
The headshake response is a rapid, rhythmic shaking of the head in a radial motion. Data are analyzed by ANOVA followed by post hoc analysis where appropriate.

Sprague Dawley rats [4] = test: DOI-induced headshake response; type: in vivo; conditions: rat
Experimental: Adult male Sprague Dawley rats are used. […] DOI (3 mg/kg) is dissolved in saline and administered IP at a dose volume of 1 ml/kg (10 minutes prior to test). Ketanserin (1 mg/kg) is dissolved in saline and injected IP 30 minutes prior to DOI at a dose volume of […].
Rats are then injected with DOI and headshakes are recorded 10 minutes after DOI injection for 10 minutes using video cameras. The headshake response is a rapid, rhythmic shaking of the head in a radial motion. Data is analyzed by ANOVA followed by post hoc analysis where appropriate.

Sprague Dawley rats [5] = test: Conditioned Avoidance Response test; conditions: rat
Excerpt: (§3) The Conditioned Avoidance Response (CAR) Test is an animal model screening for antipsychotic drugs.

[6] = target: T3, human Serotonin 5-HT7A receptor (Homo sapiens, UniProt P34969); test: Radioligand binding competition, filtration, [3H]-LSD, CHO-K1 membranes
T3 construct: expressed in transfected cells; host or cells: CHO-K1
T3 sequence (P34969 1-445 isoform P34969-2): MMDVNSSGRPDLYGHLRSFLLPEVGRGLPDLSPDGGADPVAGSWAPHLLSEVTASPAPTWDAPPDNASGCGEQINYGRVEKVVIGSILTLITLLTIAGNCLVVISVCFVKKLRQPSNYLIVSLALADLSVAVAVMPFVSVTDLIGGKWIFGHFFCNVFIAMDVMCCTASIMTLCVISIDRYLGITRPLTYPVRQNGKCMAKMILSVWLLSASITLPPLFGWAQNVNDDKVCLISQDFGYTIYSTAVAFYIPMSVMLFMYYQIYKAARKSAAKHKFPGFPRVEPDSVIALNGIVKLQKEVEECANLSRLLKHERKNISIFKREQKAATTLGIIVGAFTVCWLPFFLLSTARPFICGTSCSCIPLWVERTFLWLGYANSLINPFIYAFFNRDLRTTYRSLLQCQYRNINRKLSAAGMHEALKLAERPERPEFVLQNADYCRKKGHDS

Sprague Dawley rats [7] = conditions: rat, in vivo, po, 5 mg/kg
Excerpt: as §3

5-HT2B = 5-HT2B (Homo sapiens, UniProt P41595); test: Functional assay, antagonist mode (Table 6); type: cell-based
Sequence of 5-HT2B (P41595 whole entry): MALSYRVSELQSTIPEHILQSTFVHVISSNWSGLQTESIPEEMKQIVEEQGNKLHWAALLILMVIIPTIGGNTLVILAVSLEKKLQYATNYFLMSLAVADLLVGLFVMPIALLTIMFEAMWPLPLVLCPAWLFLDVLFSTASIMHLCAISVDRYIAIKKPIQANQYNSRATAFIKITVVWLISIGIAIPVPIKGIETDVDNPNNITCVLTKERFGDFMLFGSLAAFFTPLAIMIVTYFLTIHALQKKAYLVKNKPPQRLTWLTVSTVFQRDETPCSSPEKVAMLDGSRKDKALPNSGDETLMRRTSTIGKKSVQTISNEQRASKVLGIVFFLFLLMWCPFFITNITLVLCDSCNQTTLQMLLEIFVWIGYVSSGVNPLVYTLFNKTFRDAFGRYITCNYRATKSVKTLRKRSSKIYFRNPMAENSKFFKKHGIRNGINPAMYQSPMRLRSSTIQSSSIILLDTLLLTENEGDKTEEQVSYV

5-HT1A = target: T4, 5-HT1A (Homo sapiens, UniProt P08908); test: Functional assay, antagonist mode (Table 6); type: cell-based; conditions: read-out: 5-HT1A (antagonist mode) Emax
T4 sequence (P08908 1-422): T1 sequence (P08908 1-422)

Sprague Dawley rats [8] = test: Touchscreen-based rat Probabilistic Reward Task; type: in vivo
Excerpt: The Probabilistic Reward Task (PRT) uses visual discrimination methodology to quantify reward responsiveness to both identify deficits and characterize drug-induced improvements.
Male Sprague Dawley rats are used in the present study.
Briefly, a custom-built Plexiglas chamber (25×30×35 cm) is situated in a sound- and light-attenuating enclosure (40×60×45 cm). A 17″ touch-sensitive screen (1739L, ELO TouchSystems, Menlo Park, CA) comprises the inside right-hand wall of the enclosure. An infusion pump (PHM-100-5, Med Associates, St. Albans, VT) outside the enclosure is used to deliver sweetened condensed milk solution into the shallow reservoir of a custom-designed aluminum receptacle. The receptacle is mounted 3 cm above the floor bars and centered on the left-hand inside wall. Both touchscreen and fluid reservoir are easily accessible to the subject. A speaker bar (NQ576AT, Hewlett-Packard, Palo Alto, CA) mounted above the touchscreen is used to emit audible feedback. All experimental events and data collection are programmed in E-Prime Professional 2.0 (Psychology Software Tools, Inc., Sharpsburg, PA). […]
Following line-length discrimination training, probabilistic reinforcement schedules are introduced. […] These probabilistic contingencies are assessed across 5 consecutive sessions prior to initiation of drug testing. […]

[9] = target: human Dopamine D2L receptor (Homo sapiens, UniProt P14416); conditions: cAMP, % inhibition of reference agonist at EC80
Sequence of human Dopamine D2L receptor (P14416 whole entry): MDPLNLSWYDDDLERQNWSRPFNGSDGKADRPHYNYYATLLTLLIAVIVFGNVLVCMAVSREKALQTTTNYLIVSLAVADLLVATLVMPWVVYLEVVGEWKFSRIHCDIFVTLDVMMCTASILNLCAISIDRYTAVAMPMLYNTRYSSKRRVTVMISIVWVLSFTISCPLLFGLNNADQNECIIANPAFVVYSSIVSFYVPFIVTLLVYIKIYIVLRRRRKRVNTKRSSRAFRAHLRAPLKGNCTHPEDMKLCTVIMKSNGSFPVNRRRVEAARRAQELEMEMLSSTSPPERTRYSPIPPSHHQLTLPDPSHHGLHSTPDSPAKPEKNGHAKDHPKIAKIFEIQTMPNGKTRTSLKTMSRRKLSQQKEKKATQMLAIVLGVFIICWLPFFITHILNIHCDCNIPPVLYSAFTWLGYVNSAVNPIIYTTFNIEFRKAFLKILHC
Experimental: as §1, §2

[10] = target: T3, human Serotonin 5-HT7A receptor; test: cAMP HTRF functional assay, antagonist mode; type: cell-based
[11] = target: T2, human Serotonin 5-HT2A receptor; test: IP-One HTRF functional assay, antagonist mode; type: cell-based; parameters: expressed in transfected cells; host or cells: CHO-K1; conditions: % inhibition of reference agonist at EC80
Experimental: (§4) IP-One and cAMP HTRF assays are conducted with recombinant cell lines.
as §2

[12] = target: human Dopamine D3 receptor (Homo sapiens, UniProt P35462); conditions: GTPγS; % inhibition of reference agonist at EC80
Sequence of human Dopamine D3 receptor (P35462 whole entry): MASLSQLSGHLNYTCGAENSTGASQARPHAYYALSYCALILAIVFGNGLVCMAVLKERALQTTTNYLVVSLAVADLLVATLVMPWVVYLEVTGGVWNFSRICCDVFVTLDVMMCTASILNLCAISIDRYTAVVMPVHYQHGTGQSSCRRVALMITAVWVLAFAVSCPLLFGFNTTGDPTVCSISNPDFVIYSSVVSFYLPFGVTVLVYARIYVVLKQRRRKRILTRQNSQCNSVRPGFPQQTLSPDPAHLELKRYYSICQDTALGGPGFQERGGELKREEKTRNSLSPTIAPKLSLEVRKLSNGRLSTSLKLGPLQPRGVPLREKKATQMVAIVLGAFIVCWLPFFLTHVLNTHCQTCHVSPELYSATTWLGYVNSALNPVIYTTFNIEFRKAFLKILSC
Experimental: as §1, §2

[13] = target: T5, human Dopamine D4.4 receptor (Homo sapiens, UniProt P21917); conditions: cAMP; % inhibition of reference agonist at EC80
T5 sequence (P21917 1-419): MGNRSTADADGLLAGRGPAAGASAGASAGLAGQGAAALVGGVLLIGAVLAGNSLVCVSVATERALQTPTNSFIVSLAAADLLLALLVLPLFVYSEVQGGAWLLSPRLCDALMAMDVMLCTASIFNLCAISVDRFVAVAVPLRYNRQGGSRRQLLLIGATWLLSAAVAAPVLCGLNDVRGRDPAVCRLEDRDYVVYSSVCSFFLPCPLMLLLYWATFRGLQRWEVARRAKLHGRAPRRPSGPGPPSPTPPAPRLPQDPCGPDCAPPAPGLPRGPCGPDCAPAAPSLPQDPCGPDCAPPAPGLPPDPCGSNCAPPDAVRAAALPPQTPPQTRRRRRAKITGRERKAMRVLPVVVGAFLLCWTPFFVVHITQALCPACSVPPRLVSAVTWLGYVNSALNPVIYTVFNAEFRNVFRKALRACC
Experimental: as §1, §2

[14] = target: human Dopamine D2S receptor (Homo sapiens, UniProt P14416); conditions: cAMP, % inhibition of reference agonist at EC80
Sequence of human Dopamine D2S receptor (P14416 1-414 isoform P14416-2): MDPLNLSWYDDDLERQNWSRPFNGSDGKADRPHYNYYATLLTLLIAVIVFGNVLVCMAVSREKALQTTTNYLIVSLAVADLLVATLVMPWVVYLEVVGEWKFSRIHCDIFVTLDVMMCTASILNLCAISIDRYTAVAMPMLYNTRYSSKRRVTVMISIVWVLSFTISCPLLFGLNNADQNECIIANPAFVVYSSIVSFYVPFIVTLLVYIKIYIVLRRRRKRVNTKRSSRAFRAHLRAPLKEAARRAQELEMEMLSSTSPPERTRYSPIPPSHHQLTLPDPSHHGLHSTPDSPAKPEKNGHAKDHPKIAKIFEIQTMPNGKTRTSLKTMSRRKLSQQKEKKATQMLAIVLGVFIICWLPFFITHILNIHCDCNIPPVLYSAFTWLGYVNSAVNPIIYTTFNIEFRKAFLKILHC
Experimental: as §4, §2

[15] = 2.5 and 5 mg/kg orally 4 hours prior to test
[16] = 0.5 mg/kg i.p. 30 minutes prior to test

CNc1cc(OC)c(C(=O)N[C@H]2CCN(Cc3ccccc3)[C@H]2C)cc1Cl (racemic) [Nemonapride, (±)-cis-N-(1-Benzyl-2-methylpyrrolidin-3-yl)-5-chloro-2-methoxy-4-methylaminobenzamide]
5-HT1A (agonist mode) Top % Activation at maximal concentration [1]: cAMP 52%
5-HT2A (agonist mode) Top % Activation at maximal concentration [2]: IP-one 48%

COc1cc(CC(C)N)c(OC)cc1I (centres unmarked) [DOI, reference compound]
number of headshakes compared to vehicle (Sprague Dawley rats [3]; rat, 3 mg/kg IP 10 minutes prior to test): significantly increases
number of headshakes compared to vehicle (Sprague Dawley rats [4]; DOI 3 mg/kg IP): significantly increases

[2H]C([2H])([2H])Nc1cc(OC)c(C(=O)N[C@H]2CCN(C([2H])([2H])c3ccccc3)[C@H]2C)cc1Cl [Example A1, 5-Chloro-N-((2S,3S)-1-(dideutero(phenyl)methyl)-2-methylpyrrolidin-3-yl)-2-methoxy-4-(trideuteromethylamino)benzamide]
number of avoidance responses compared to vehicle (Sprague Dawley rats [5]; [15]): significantly decrease
percent avoidance compared to vehicle (Sprague Dawley rats [5]; [15]): significantly decrease
Ki [6]: 74.4 nM
escape failures compared to vehicle (Sprague Dawley rats [7]): increase
number of headshakes compared to vehicle (Sprague Dawley rats [3]; rat, 1, 5 and 10 mg/kg PO 4 hours prior to test): no significant increase
Emax (5-HT2B): 92%
Emax (5-HT1A): 63%
log b vs vehicle, Cohen's d (Sprague Dawley rats [8]; 0.5 mg/kg orally, n=8, paired t-test p=0.006): 1.21
log b vs vehicle, Cohen's d (Sprague Dawley rats [8]; 1 mg/kg orally, n=8, paired t-test p=0.04): 0.75
D2 (antagonist mode) Top % Inhibition at maximal concentration, D2L [9]: cAMP 81 (D2L) %
DOI-induced headshake responses (Sprague Dawley rats [4]; 1 mg/kg PO 4 hours prior, DOI 3 mg/kg IP, p=0.051): non-significant trend to decreasing
DOI-induced headshake responses (Sprague Dawley rats [4]; 5 and 10 mg/kg PO 4 hours prior, DOI 3 mg/kg IP): decrease
IC50 [10]: 2240 nM

O=C(c1ccc(F)cc1)C1CCN(CCn2c(=O)[nH]c3ccccc3c2=O)CC1 [Ketanserin, reference compound]
DOI-induced headshake responses (Sprague Dawley rats [4]; 1 mg/kg IP 30 minutes prior to DOI 3 mg/kg IP): decrease

CNc1cc(OC)c(C(=O)N[C@H]2CCN(Cc3ccccc3)[C@H]2C)cc1Cl [cis (S,S) nemonapride, N-[(2S,3S)-1-benzyl-2-methylpyrrolidin-3-yl]-5-chloro-2-methoxy-4-(methylamino)benzamide]
IC50 [6]: 167 nM
Ki [6]: 117 nM
5-HT2A (antagonist mode) Top % Inhibition at maximal concentration [11]: IP-one 52%
5-HT1A (agonist mode) Top % Activation at maximal concentration [1]: cAMP 17%
5-HT2A (agonist mode) Top % Activation at maximal concentration [2]: IP-one 29%
D3 (antagonist mode) Top % Inhibition at maximal concentration [12]: GTPγS 117%
D2 (antagonist mode) Top % Inhibition at maximal concentration, D2L [9]: cAMP 84 (D2L) %
D4 (antagonist mode) Top % Inhibition at maximal concentration [13]: cAMP 67%
D2 (antagonist mode) Top % Inhibition at maximal concentration, D2S [14]: cAMP 88 (D2S) %

Cc1nc2n(c(=O)c1CCN1CCC(c3noc4cc(F)ccc34)CC1)CCCC2 [risperidone, Risperidone, reference compound]
number of avoidance responses compared to vehicle (Sprague Dawley rats [5]; [16]): significantly decrease
percent avoidance compared to vehicle (Sprague Dawley rats [5]; [16]): significantly decrease
